Data taken from publication PMC9933715 (Antimicrobial Agents and Chemotherapy, 2023).
Like-named read-outs stand apart in the source and are kept apart here.

Columns and labels:
[1] = system: DENV-R2A (Rluc-expressing DENV, serotype 2 strain 16681); test: microbe, parasite or virus in culture; format: cell-based, Dengue virus; settings: for activity at 50 µM: Dengue virus, Huh7.5, 48 h; for antiviral activity against DENV-R2A (SAR, in words): NPP3C analogues; for antiviral activity against DENV-R2A (SAR, in words) / inhibitory activity against DENV-R2A (SAR, in words): 50 μM
Huh7.5 cells = test: Cell viability, CellTiter-Glo luminescent assay
[2] = 6A1HI analogues, test concentration = 50 µM, Huh7.5 cells
[3] = Table S3, NPP3C analogues, 50 µM, Huh7.5, 2 days postinfection
[4] = Table S3, NPP3C analogues, 50 µM, Huh7.5
[5] = read-out: DENV-R2A replication (Fold DMSO), 6A1HI analogues, test concentration = 50 µM, Huh7.5 cells
[6] = read-out: DENV-R2A replication (fold DMSO), Table 1, NPP3C analogues, 50 μM, Huh7.5, 2 days postinfection
[7] = Table 1, NPP3C analogues, 50 μM, Huh7.5, 2 days
[8] = read-out: DENV-R2A replication (fold DMSO), Table 2, 6A1HI analogues, 50 μM, Huh7.5, 2 days postinfection
[9] = Table 2, 6A1HI analogues, 50 μM, Huh7.5, 2 days
[10] = read-out: DENV-R2A replication (Fold DMSO), Table S3, NPP3C analogues, 50 µM, Huh7.5, 2 days postinfection

Structure (SMILES)	DENV-R2A replication (Fold DMSO) [1, 2] [Fold DMSO]	DENV-R2A replication (Fold DMSO) [1, 3] [Fold DMSO]	Cell viability (Fold DMSO) (Huh7.5 cells; [2])	Cell viability (Fold DMSO) (Huh7.5 cells; [4])	activity at 50 µM [1, 5] [%]	activity at 50 µM [1, 6] [%]	antiviral activity against DENV-R2A (SAR, in words) [1]	Cell viability (Fold DMSO) (Huh7.5 cells; [7]) [fold DMSO]	inhibitory activity against DENV-R2A (SAR, in words) ([1]; 6A1HI analogues)	activity at 50 µM [1, 8] [%]	Cell viability (Fold DMSO) (Huh7.5 cells; [9]) [fold DMSO]	activity at 50 µM [1, 10] [%]
Nc1cccc(-c2cccnc2)c1 [Compound 10]	1.00	1.04	0.93	0.93								
CC(Nc1ccccc1)c1cccnc1 (stereo not shown) [Compound 56]			0.98	0.94	114	147	retains little activity, if any	0.94				
CC(=O)c1ccc2[nH]c(=O)[nH]c2c1 [Compound 76]			0.98		87				loss of inhibitory activity	87	0.98	
NCc1ccc2cn[nH]c2c1 [Compound 6]			0.76	0.77	96					96	0.76	55
O=C(NNC(=O)c1ccncc1)Nc1ccccc1 [Compound 69]	0.98	1.32	1.02	0.88								
Nc1cccc(NC(=O)c2cccnc2)c1 [Compound 55]			1.08	0.96	134	75		0.96				
O=C(Nc1ccc(C(F)(F)F)cc1)c1cccnc1 [Compound 65]			1.17	0.87	115	98		0.87				
NC(=O)c1ccc2cn[nH]c2c1 [Compound 75]			0.99		106					106	0.99	
CC(=O)c1ccc2c(c1)OCO2 [Compound 42]			0.93	1.15	107				loss of inhibitory activity	107	0.93	153
O=C(Nc1cccc(B(O)O)c1)c1cccnc1 [Compound 52]					115	107				115		
OCc1ccc2cn[nH]c2c1 [Compound 3]			0.93	0.94	110					110	0.93	89
Oc1ccc2[nH]ncc2c1 [Compound 18]			0.98	0.95	106					106	0.98	101
O=C(Nc1ccccc1Cl)c1cccnc1 [Compound 29]			0.96	0.95	55	99		0.95				
O=C(NC1CC1)c1ccc(C(F)(F)F)nc1 [Compound 41]	1.13	1.24	0.98	0.90								
O=C(Nc1ccccc1)N1CCNCC1 [Compound 7]					105	82				105		
c1ccc(NCc2cccnc2)cc1 [Compound 63]					81	138	retains little activity, if any					
